Laboratory results: the supplement of paper PMC9912026
± gives the uncertainty stated by the source.

Test system: A375
Assay: pERK immunofluorescence, normalised; higher = more ERK phosphorylation
Conditions: vemurafenib 0 µM, EGF 0 ng/mL, drug treatment time 24 h
Protocol: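 A375 or A375 CRISPRa-EGFR (A375_Cra_F7_5/13) cells were adapted for 24 h to a cobimetinib dose series, with or without 1 uM vemurafenib, then stimulated with EGF (100 ng/mL) or mock medium and fixed at the indicated times. pERK was measured by immunofluorescence as the population mean normalised to baseline, with the SD of technical replicates (n=2).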

O=C(c1ccc(F)c(F)c1Nc1ccc(I)cc1F)N1CC(O)([C@@H]2CCCCN2)C1 [cobimetinib]
pERK immunofluorescence
Conditions	cobimetinib 31.62 pM	cobimetinib 0.0001 µM	cobimetinib 0.000316228 µM	cobimetinib 0.001 µM	cobimetinib 0.003162278 µM	cobimetinib 0.01 µM	cobimetinib 0.031622777 µM	cobimetinib 0.1 µM	cobimetinib 0.316227766 µM	cobimetinib 1 µM
time after EGF/mock 0.083 h	0.965 ± 0.018	0.9579 ± 0.0028	0.873 ± 0.041	0.658 ± 0.028	0.313 ± 0.0071	0.16 ± 0.0032	0.1379 ± 0.0011	0.13 ± 0.0026	0.1264 ± 0.00022	0.1263 ± 0.00091
time after EGF/mock 0.5 h	0.9998 ± 0.0072	0.958 ± 0.029	0.8944 ± 0.008	0.679 ± 0.0098	0.306 ± 0.013	0.157 ± 0.0021	0.135 ± 0.0013	0.1283 ± 0.00077	0.1262 ± 0.00025	0.126 ± 0.0013
time after EGF/mock 2 h	0.961 ± 0.033	0.958 ± 0.053	0.904 ± 0.014	0.746 ± 0.025	0.358 ± 0.057	0.152 ± 0.0073	0.1311 ± 0.00015	0.1245 ± 0.00041	0.1235 ± 0.00032	0.1235 ± 0.00061
time after EGF/mock 8 h	0.97332 ± 0.0006	0.972 ± 0.02	0.93 ± 0.011	0.7507 ± 0.0056	0.312 ± 0.032	0.132 ± 0.0023	0.1135 ± 0.001	0.113 ± 0.0043	0.105 ± 0.0012	0.1046 ± 0.00065
time after EGF/mock 24 h	0.962 ± 0.021	0.985 ± 0.085	0.952 ± 0.037	0.817 ± 0.045	0.399 ± 0.058	0.1129 ± 0.00064	0.10189 ± 7.8e-06	0.103 ± 0.0015	0.1021 ± 0.00052	0.0982 ± 0.0013
